Experimental data published in ChEMBL document CHEMBL6092180 (Eur J Med Chem, 2024).
≈ marks a conversion by molar mass, not a printed value.

Legend:
Type in all cases: functional
Nakaseomyces glabratus = assay: Antifungal activity against Candida glabrata assessed as inhibition of fungal growth by CLSI M27-A3 guidelines based method
Cryptococcus neoformans = assay: Antifungal activity against Cryptococcus neoformans CGMCC 2.3161 assessed as inhibition of fungal growth by CLSI M27-A3 guidelines based method
Candida parapsilosis = assay: Antifungal activity against Candida parapsilosis GIM 2.190 assessed as inhibition of fungal growth by CLSI M27-A3 guidelines based method; settings: Lodderomyces parapsilosis
Candida albicans [1] = assay: Antifungal activity against Candida albicans SC5314 assessed as inhibition of fungal growth by CLSI M27-A3 guidelines based method
Candida tropicalis = assay: Antifungal activity against Candida tropicalis GIM 2.183 assessed as inhibition of fungal growth by CLSI M27-A3 guidelines based method
Pichia kudriavzevii = assay: Antifungal activity against Candida krusei GIM 2.1 assessed as inhibition of fungal growth by CLSI M27-A3 guidelines based method
Candida albicans [2] = assay: Antifungal activity against Candida albicans GIM 2.194 assessed as inhibition of fungal growth by CLSI M27-A3 guidelines based method

MIC80 (Nakaseomyces glabratus) [µg/mL]	MIC80 (Cryptococcus neoformans) [µg/mL]	MIC80 (Candida parapsilosis) [µg/mL]	MIC80 (Candida albicans [1]) [µg/mL]	MIC80 (Candida tropicalis) [µg/mL]	MIC80 (Pichia kudriavzevii) [µg/mL]	MIC80 (Candida albicans [2]) [µg/mL]	Structure (SMILES)
0.01 (≈ 0.0171 µM)	0.013 (≈ 0.0222 µM)	0.006 (≈ 0.0103 µM)	0.006 (≈ 0.0103 µM)	0.013 (≈ 0.0222 µM)	0.03 (≈ 0.0513 µM)	0.006 (≈ 0.0103 µM)	CN(Cc1ccc(C#Cc2ccc(I)cc2)cc1)CC(O)(Cn1cncn1)c1ccc(F)cc1F (stereo unspecified)
0.1 (≈ 0.207 µM)	0.05 (≈ 0.103 µM)	0.006 (≈ 0.0124 µM)	0.013 (≈ 0.0269 µM)	0.013 (≈ 0.0269 µM)	0.1 (≈ 0.207 µM)	0.006 (≈ 0.0124 µM)	CN(Cc1ccc(C#Cc2ccc(C#N)cc2)cc1)CC(O)(Cn1cncn1)c1ccc(F)cc1F (stereo unspecified)
0.2 (≈ 0.38 µM)	0.05 (≈ 0.095 µM)	0.1 (≈ 0.19 µM)	0.1 (≈ 0.19 µM)	0.05 (≈ 0.095 µM)	0.2 (≈ 0.38 µM)	0.025 (≈ 0.0475 µM)	CN(Cc1ccc(C#Cc2ccc(C(F)(F)F)cc2)cc1)CC(O)(Cn1cncn1)c1ccc(F)cc1F (stereo unspecified)
3.2 (≈ 6.76 µM)	0.4 (≈ 0.845 µM)	0.05 (≈ 0.106 µM)	0.2 (≈ 0.422 µM)	0.2 (≈ 0.422 µM)	0.8 (≈ 1.69 µM)	0.05 (≈ 0.106 µM)	CN(Cc1ccc(C#Cc2ccc(N)cc2)cc1)CC(O)(Cn1cncn1)c1ccc(F)cc1F (stereo unspecified)
0.03 (≈ 0.063 µM)	0.013 (≈ 0.0273 µM)	0.006 (≈ 0.0126 µM)	0.006 (≈ 0.0126 µM)	0.013 (≈ 0.0273 µM)	0.05 (≈ 0.105 µM)	0.006 (≈ 0.0126 µM)	CN(Cc1ccc(C#Cc2ccc(F)cc2)cc1)CC(O)(Cn1cncn1)c1ccc(F)cc1F (stereo unspecified)
0.05 (≈ 0.101 µM)	0.013 (≈ 0.0264 µM)	0.006 (≈ 0.0122 µM)	0.006 (≈ 0.0122 µM)	0.013 (≈ 0.0264 µM)	0.03 (≈ 0.0609 µM)	0.013 (≈ 0.0264 µM)	CN(Cc1ccc(C#Cc2ccc(Cl)cc2)cc1)CC(O)(Cn1cncn1)c1ccc(F)cc1F (stereo unspecified)
0.1 (≈ 0.206 µM)	0.05 (≈ 0.103 µM)	0.013 (≈ 0.0267 µM)	0.013 (≈ 0.0267 µM)	0.013 (≈ 0.0267 µM)	0.05 (≈ 0.103 µM)	0.013 (≈ 0.0267 µM)	CN(Cc1ccc(C#Cc2ccc(C=O)cc2)cc1)CC(O)(Cn1cncn1)c1ccc(F)cc1F (stereo unspecified)

The remaining lines, values behind:

Structure (SMILES)	MIC80 (Nakaseomyces glabratus) [µg/mL]	MIC80 (Cryptococcus neoformans) [µg/mL]	MIC80 (Candida parapsilosis) [µg/mL]	MIC80 (Candida albicans [1]) [µg/mL]	MIC80 (Candida tropicalis) [µg/mL]	MIC80 (Pichia kudriavzevii) [µg/mL]	MIC80 (Candida albicans [2]) [µg/mL]
CN(Cc1ccc(C#Cc2ccc(OCc3ccccc3)cc2)cc1)CC(O)(Cn1cncn1)c1ccc(F)cc1F (stereo unspecified)	0.1 (≈ 0.177 µM)	0.1 (≈ 0.177 µM)	0.2 (≈ 0.354 µM)	0.05 (≈ 0.0886 µM)	0.05 (≈ 0.0886 µM)	0.1 (≈ 0.177 µM)	0.013 (≈ 0.023 µM)
CN(Cc1ccc(C#Cc2ccc(C(C)(C)C)cc2)cc1)CC(O)(Cn1cncn1)c1ccc(F)cc1F (stereo unspecified)	0.8 (≈ 1.55 µM)	0.05 (≈ 0.0972 µM)	0.013 (≈ 0.0253 µM)	0.025 (≈ 0.0486 µM)	0.025 (≈ 0.0486 µM)	0.4 (≈ 0.777 µM)	0.025 (≈ 0.0486 µM)
Cc1cccc(C#Cc2ccc(CN(C)CC(O)(Cn3cncn3)c3ccc(F)cc3F)cc2)c1 (stereo unspecified)	0.4 (≈ 0.846 µM)	0.025 (≈ 0.0529 µM)	0.013 (≈ 0.0275 µM)	0.013 (≈ 0.0275 µM)	0.025 (≈ 0.0529 µM)	0.8 (≈ 1.69 µM)	0.013 (≈ 0.0275 µM)
CN(Cc1ccc(C#Cc2ccc(Br)cc2F)cc1)CC(O)(Cn1cncn1)c1ccc(F)cc1F (stereo unspecified)	0.03 (≈ 0.054 µM)	0.025 (≈ 0.045 µM)	0.006 (≈ 0.0108 µM)	0.006 (≈ 0.0108 µM)	0.006 (≈ 0.0108 µM)	0.03 (≈ 0.054 µM)	0.006 (≈ 0.0108 µM)
CN(Cc1ccc(C#Cc2cccnc2)cc1)CC(O)(Cn1cncn1)c1ccc(F)cc1F (stereo unspecified)	0.8 (≈ 1.74 µM)	0.05 (≈ 0.109 µM)	0.05 (≈ 0.109 µM)	0.013 (≈ 0.0283 µM)	0.013 (≈ 0.0283 µM)	0.2 (≈ 0.435 µM)	0.025 (≈ 0.0544 µM)
C[C@@H](N(C)Cc1ccc(C#Cc2ccc(C(F)(F)F)cc2)cc1)[C@](O)(Cn1cncn1)c1ccc(F)cc1F	0.05 (≈ 0.0925 µM)	0.05 (≈ 0.0925 µM)	0.013 (≈ 0.0241 µM)	0.025 (≈ 0.0463 µM)	0.013 (≈ 0.0241 µM)	0.1 (≈ 0.185 µM)	0.05 (≈ 0.0925 µM)
CN(Cc1ccc(C#Cc2ccc(OC(F)(F)F)cc2)cc1)CC(O)(Cn1cncn1)c1ccc(F)cc1F (stereo unspecified)	0.2 (≈ 0.369 µM)	0.05 (≈ 0.0922 µM)	0.013 (≈ 0.024 µM)	0.025 (≈ 0.0461 µM)	0.013 (≈ 0.024 µM)	0.2 (≈ 0.369 µM)	0.013 (≈ 0.024 µM)
CN(Cc1ccc(C#Cc2ncccn2)cc1)CC(O)(Cn1cncn1)c1ccc(F)cc1F (stereo unspecified)	3.2 (≈ 6.95 µM)	0.8 (≈ 1.74 µM)	0.025 (≈ 0.0543 µM)	0.025 (≈ 0.0543 µM)	0.025 (≈ 0.0543 µM)	1.6 (≈ 3.47 µM)	0.05 (≈ 0.109 µM)
CN(Cc1ccc(C#Cc2ccc(Br)c(F)c2)cc1)CC(O)(Cn1cncn1)c1ccc(F)cc1F (stereo unspecified)	0.03 (≈ 0.054 µM)	0.025 (≈ 0.045 µM)	0.006 (≈ 0.0108 µM)	0.006 (≈ 0.0108 µM)	0.006 (≈ 0.0108 µM)	0.01 (≈ 0.018 µM)	0.006 (≈ 0.0108 µM)
CN(Cc1ccc(C#Cc2ccc(Cl)cc2F)cc1)CC(O)(Cn1cncn1)c1ccc(F)cc1F (stereo unspecified)	0.03 (≈ 0.0587 µM)	0.025 (≈ 0.0489 µM)	0.006 (≈ 0.0117 µM)	0.006 (≈ 0.0117 µM)	0.006 (≈ 0.0117 µM)	0.01 (≈ 0.0196 µM)	0.006 (≈ 0.0117 µM)
CN(Cc1ccc(C#Cc2ccc(F)c(F)c2)cc1)CC(O)(Cn1cncn1)c1ccc(F)cc1F (stereo unspecified)	0.03 (≈ 0.0607 µM)	0.013 (≈ 0.0263 µM)	0.006 (≈ 0.0121 µM)	0.006 (≈ 0.0121 µM)	0.006 (≈ 0.0121 µM)	0.01 (≈ 0.0202 µM)	0.006 (≈ 0.0121 µM)
